The text below walks through data of paper PMC6017749, “Exploring N-acyl-4-azatetracyclo[5.3.2.0^2,6.0^8,10]dodec-11-enes as 11β-HSD1 Inhibitors” (Molecules : A Journal of Synthetic Chemistry and Natural …, 2018).

Details of series [1]: method as in PMID 21471376, PMID 26306982. To be noted: remaining compound after 30-min incubation in human liver microsomes; cited from earlier work.
Series [2] deals with T1, human 11β-HSD2 (Homo sapiens, UniProt P80365).
T1 construct: stably transfected with the full-length gene coding for human 11β-HSD2; expressed in transfected cells; host or cells: HEK293
T1 sequence (P80365 1-405): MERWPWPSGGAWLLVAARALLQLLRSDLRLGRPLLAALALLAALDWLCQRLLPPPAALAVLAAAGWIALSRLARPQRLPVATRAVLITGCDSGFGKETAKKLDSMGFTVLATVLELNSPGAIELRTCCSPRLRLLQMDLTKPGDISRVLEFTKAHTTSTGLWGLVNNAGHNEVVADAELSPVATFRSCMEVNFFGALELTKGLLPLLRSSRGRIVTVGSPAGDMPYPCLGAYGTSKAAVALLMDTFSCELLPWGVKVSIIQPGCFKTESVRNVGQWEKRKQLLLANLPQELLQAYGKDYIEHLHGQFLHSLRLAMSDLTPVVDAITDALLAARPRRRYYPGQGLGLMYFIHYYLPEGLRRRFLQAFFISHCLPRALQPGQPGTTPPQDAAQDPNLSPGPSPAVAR
To be noted: cited from earlier work; for IC50: read-out: HEK hHSD2 IC50.

Series [3] deals with T2, human 11β-HSD1 (Homo sapiens, UniProt P28845).
T2 construct: The assay uses human liver microsomes (HLM), where the enzyme is expressed; tissue Celsis In-vitro Technologies; host or cells: mixed sex human liver microsomes
Put plainly: 11β-HSD1 enzyme inhibition assay in human liver microsomes (3H-cortisone to 3H-cortisol, SPA). In kind it is biochemical. To be noted: human liver microsomes; for inhibition at 10 µM: relative to no inhibitor control, read-out: hHSD1 % inh at 10 µM; for IC50: read-out: hHSD1 IC50. On the procedure: A preliminary screen was performed using a human microsome assay with compounds at 10 µM in order to assess their potential inhibition of the target enzyme (Table 2). Percentage of inhibition was determined by measuring the conversion of ^3H-cortisone to ^3H-cortisol by capturing liberated ^3H-cortisol on anti-cortisol (HyTest Ltd., Turku, Finland)-coated scintillation proximity assay beads. The assay uses human liver microsomes (HLM), where the enzyme is expressed, and NADPH as the cofactor needed by the enzyme. Eight of the thirteen new compounds presented 100% inhibition of the human 11β-HSD1 in this single concentration assay, so dose-response curves were performed to get their IC50 values.
11β-HSD1 activity was determined in mixed sex, human liver microsomes (HLM, Celsis In-vitro Technologies) by measuring the conversion of ^3H-cortisone to ^3H-cortisol. Percentage inhibition was determined relative to a no inhibitor control. An amount of 5 μg of HLM were pre-incubated at 37 °C for 15 min with inhibitor and 1 mM NADPH in a final volume of 90 μL Krebs buffer. 10 μL of 200 nM ^3H-cortisone was then added followed by incubation at 37 °C for a further 30 min. The assay was terminated by rapid freezing on dry ice and ^3H-cortisone to ^3H-cortisol conversion determined in 50 μL of the defrosted reaction by capturing liberated ^3H-cortisol on anti-cortisol (HyTest Ltd)-coated scintillation proximity assay beads (protein A-coated YSi, GE Healthcare). Reported values are the average of 1–3 measurements. A nanomolar 11β-HSD1 inhibitor, UE2316, was added as a positive control within in each set of assays.

For series [4], the target named is T1, human 11β-HSD2. Description: Cellular 11β-HSD2 enzyme inhibition assay (HEK293 stably transfected). In kind it is cell-based. To be noted: HEK293, 10 µM, HEK293 transfected with human 11β-HSD2; read-out: HEK hHSD2 % inh at 10 µM. As for the experimental part: (§1) Selectivity over 11β-HSD2 was also assessed in a cell-based assay using the same methodology as before (HEK293 stably transfected with the 11β-HSD2 gene). […] Finally, metabolic stability was determined using HLM, which are widely used to predict the degree of primary metabolic clearance in the liver. Each compound was incubated over 30 min with HLM and the percentage of remaining compound after this incubation period was determined by calculating compound concentration after and before by LC/MS.
For measurement of inhibition of 11β-HSD2, HEK293 cells stably transfected with the full-length gene coding for human 11β-HSD2 were used. The protocol was the same as for the cellular 11β-HSD1 enzyme inhibition assay, only changing the substrate, this time cortisol, and the concentrations of the tested compounds, 10, 1, and 0.1 µM. Reported values are the average of 1–3 measurements.

The target of series [5] is T2, human 11β-HSD1. Description: Cellular 11β-HSD1 enzyme inhibition assay (HEK293 stably transfected, cortisol by LC/MS). The note with it: for inhibition at 10 µM: HEK293 transfected with human 11β-HSD1, read-out: HEK hHSD1 % inh at 10 µM; for HEK hHSD1 % inh at 10 µM: HEK293 transfected with human 11β-HSD1. In kind it is cell-based. On the procedure:
Those compounds with submicromolar IC50 values (4, 6, 8, 9 and 16) were further evaluated in terms of cellular potency, selectivity over 11β-HSD2, and metabolic stability as follows (Table 2, 5th, 6th, and 7th column, respectively). Cellular potency was assessed using Human Embryonic Kidney 293 (HEK293) cells stably transfected with the 11β-HSD1 gene. Cells were incubated with substrate (cortisone) and percentage of inhibition was determined by measuring the conversion of cortisone to cortisol by LC/MS. The results were in line with the previous results obtained in the microsomal assay.
The cellular 11β-HSD1 enzyme inhibition assay was performed using HEK293 cells stably transfected with the human 11β-HSD1 gene. Cells were incubated with substrate (cortisone) and product (cortisol) was determined by LC/MS. Cells were plated at 2 × 10^4 cells/well in a 96-well poly-D-lysine coated tissue culture microplate (Greiner Bio-one, Monroe, NC, USA) and incubated overnight at 37 °C in 5% CO2 […]. Compounds to be tested were solubilized in 100% dimethylsulfoxide (DMSO) at 10 mM and serially diluted in water and 10% DMSO to final concentration of 10 µM in 10% DMSO. Then 10 µL of each test dilution and 10 µL of 10% DMSO (for low and high control) were dispensed into the well of a new 96-well microplate (Greiner Bio-one). Medium was removed from the cell assay plate and 100 µL of Dulbecco’s Modified Eagle’s Medium DMEM solution (containing 1% penicillin, 1% streptomycin and 300 nM cortisone) added to each well. Cells were incubated for 2 h at 37 °C in 5% CO2 […]. Following incubation, medium was removed from each well into an Eppendorf containing 500 µL of ethyl acetate, mixed by vortex and incubated at r.t. for 5 min. A calibration curve of known concentrations of cortisol in assay medium was also set up and added to 500 µL of ethyl acetate, vortexed and incubated as above. The supernatant of each Eppendorf was removed to a 96-deep-well plate and dried down under […] at 65 °C. Each well was solubilized in 100 µL 70:30 H2O:acetonitrile (ACN) and removed to a 96-well V-bottomed plate for LC/MS analysis. Separation was carried out on a Sunfire 150 × 2.1 mm, […] column using a H2O:ACN gradient profile. Typical retention times were 2.71 min for cortisol and 2.80 min for cortisone. The peak area was calculated and the concentration of each compound determined from the calibration curve. Reported values are the average of 1–3 measurements.

A short description of series [6]: Microsomal stability assay in human liver microsomes. The format is in vitro ADME. To be noted: remaining compound after 30-min incubation in HLM. On the procedure: as §1
The microsomal stability of each compound was determined using human liver microsomes (HLM, Celsis In-vitro Technologies, Baltimore, MD, USA). Microsomes were thawed and diluted to a concentration of 2 mg/mL in 50 mM sodium phosphate buffer pH 7.4. Each compound was diluted in 4 mM NADPH (made in the phosphate buffer above) to a concentration of 10 µM. Two identical incubation plates were prepared to act as a 0 min and a 30 min time point assay. 30 µL of each compound dilution was added in duplicate to the wells of a U-bottom 96-well plate and warmed at 37 °C for approximately 5 min. Verapamil, lidocaine, and propranolol at 10 µM concentration were utilized as reference compounds in this experiment. Microsomes were also pre-warmed at 37 °C before the addition of 30 µL to each well of the plate resulting in a final concentration of 1 mg/mL. The reaction was terminated at the appropriate time point (0 or 30 min) by addition of 60 µL of ice-cold 0.3 M trichloroacetic acid (TCA) per well. The plates were centrifuged for 10 min at 112× g and the supernatant fraction transferred to a fresh U-bottom 96-well plate. Plates were sealed and frozen at −20 °C prior to MS analysis. LC-MS/MS was used to quantify the peak area response of each compound before and after incubation with HLM using MS tune settings established and validated for each compound. These peak intensity measurements were used to calculate the percentage remaining after incubation with HLM for each hit compound. Reported values are the average of 1–3 measurements.

For series [7], the system named is Senescence-Accelerated Mouse Prone 8 (SAMP8). Set-up: method as in PMID 28818766. To be noted: 12-month-old SAMP8 mice, four weeks; cited from earlier work.
For series [8], the target named is T2, human 11β-HSD1. Set-up: method as in PMID 21471376, PMID 26306982. To be noted: previous inhibitors of the group; read-out: hHSD1 IC50; cited from earlier work.
In another series the test system is mHSD1. Set-up: method as in PMID 21471376, PMID 26306982. To be noted: murine enzyme; cited from earlier work.
Details of series [9]: method as in PMID 21471376, PMID 26306982. To be noted: remaining compound in mouse liver microsomes; cited from earlier work.
Setting [10] is: HEK293 transfected with human 11β-HSD2.

Like-named read-outs stand apart in the source and are kept apart here.

T2 sequence (P28845 whole entry): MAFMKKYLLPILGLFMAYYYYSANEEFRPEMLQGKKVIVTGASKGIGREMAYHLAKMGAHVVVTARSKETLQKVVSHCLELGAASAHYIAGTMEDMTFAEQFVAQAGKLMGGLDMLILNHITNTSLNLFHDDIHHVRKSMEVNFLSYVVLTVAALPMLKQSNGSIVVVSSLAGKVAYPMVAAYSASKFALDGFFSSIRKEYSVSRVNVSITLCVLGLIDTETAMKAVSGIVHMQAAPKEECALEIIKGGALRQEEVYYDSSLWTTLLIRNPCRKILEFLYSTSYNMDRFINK

Turning to `O=C(NC1C2CC3CC(C2)CC1C3)C1CCCCC1` (stereo not shown) [Compound 1], in [1], the “HLM % Parent” value is reported as 74%. In addition, the “HEK hHSD2 % inh 10 µM” value at human 11β-HSD2 [2] (10 µM, HEK293 transfected with human 11β-HSD2) was 88%.

For `O=C(C1CCCCC1)N1CC2C3C=CC(C4CC34)C2C1` (stereo not shown) [Compound 2], the values for the inhibition at 10 µM at human 11β-HSD1 [3], at human 11β-HSD2 [4] and at human 11β-HSD1 [5] were 100%, 69% and 100%, respectively. Further, the values for the IC50 at human 11β-HSD1 [3] and at human 11β-HSD2 [2] (setting [10]) were 19 nM and 1000 to 10000 nM, respectively. Besides, the “HLM % Parent” value in series [1] and in series [6] was 27% in each case. Further, at human 11β-HSD2 [2] (11β-HSD2 versus 11β-HSD1), the “selectivity index against 11β-HSD2 isoform” value is given as “at least 50 fold”.

Turning to `O=C(C1CCCCC1)N1CC2C3CCC(C4CC34)C2C1` (stereo not shown) [Compound 3], the “HLM % Parent” value in series [1] was 94%. For the same molecule, in series [7], the “effect on memory deficits” value was “prevented memory deficits”. Besides, in series [7], the neuroprotective action entry is “displayed a neuroprotective action through reduction of neuroinflammation and oxidative stress”. The figures for the IC50 at human 11β-HSD1 [8], on human 11β-HSD2 [2] (setting [10]) and with mHSD1 were 29 nM, 100 to 1000 nM and 81 nM, respectively. Also, the “MLM % Parent” value in [9] is reported as 93%.

Consider `Nc1c(Cl)cc(C(=O)N2CC3C4C=CC(C5CC45)C3C2)cc1Cl` (stereo not shown) [Compound 8, (4-Amino-3,5-dichlorophenyl)(4-azatetracyclo[5.3.2. 0^2,6.0^8,10]dodec-11-en-4-yl)methanone], for which the melting point is 186 to 187 °C. Moreover, at human 11β-HSD1 [3], the inhibition at 10 µM worked out at 100% and the IC50 was 45 nM. In addition, the inhibition at 10 µM on human 11β-HSD2 [4] amounted to 86%. On human 11β-HSD1 [5], the “HEK hHSD1 % inh at 10 µM” value is recorded as “complete inhibition” and the inhibition at 10 µM is 100%. In addition, in series [6], the “HLM % Parent” value amounted to 13%.

With `O=C(C1CC=CCC1)N1CC2C3C=CC(C4CC34)C2C1` (stereo not shown) [Compound 9, (4-Azatetracyclo[5.3.2. 0^2,6.0^8,10]dodec-11-en-4-yl)(cyclohex-3-en-1-yl)methanone], the melting point is 78 to 79 °C. In addition, on human 11β-HSD1 [3], the inhibition at 10 µM worked out at 100% and the half-maximal inhibitory concentration (IC50) was 56 nM. In addition, the inhibition at 10 µM on human 11β-HSD2 [4] was 87%. Besides, at human 11β-HSD1 [5], the “HEK hHSD1 % inh at 10 µM” value was “complete inhibition” and the inhibition at 10 µM amounted to 100%. In series [6], the “HLM % Parent” value stood at 44%.

`O=C(c1ccccc1)N1CC2C3C=CC(C4CC34)C2C1` (stereo not shown) [Compound 4, (4-Azatetracyclo[5.3.2.0^2,6.0^8,10]dodec-11-en-4-yl)(phenyl)methanone] gave a melting point of 65 to 66 °C. Besides, on human 11β-HSD1 [3], the inhibition at 10 µM was found to be 100% and the IC50 turned out to be 546 nM. Besides, at human 11β-HSD2 [4], the inhibition at 10 µM amounted to 84%. Besides, the inhibition at 10 µM at human 11β-HSD1 [5] was determined as 77%. Besides, in series [6], the “HLM % Parent” value was found to be 85%.
